Reference: publication PMC9358002, “Synthesis and Discovery of Ligustrazine–Heterocycle Derivatives as Antitumor Agents” (Frontiers in Chemistry, 2022)
Like-named read-outs stand apart in the source and are kept apart here.

Columns and labels:
Assay type in all cases: cell-based
[1] = system: human breast cancer MCF-7; experiment: MTT antiproliferative assay, MCF-7; details: 0–50 μM, read-out: Antiproliferative activity IC50 ± SEM, MCF-7
Protocol: (§1) The in vitro antiproliferative activity of 33 TMPH compounds was evaluated by MTT assay ([Medica et al., 2022]). Five types of TNBC-related cell lines (human breast cancer MCF-7 and MDA-MB-231, mouse breast cancer 4T1, mouse fibroblast L929, and human umbilical vein endothelial HUVEC cell lines) were used. The cell lines were obtained from the Shanghai Institute of Biochemistry and Cell Biology of the Chinese Academy of Sciences (Shanghai, China). The cell lines were cultured in DMEM supplemented with 1% penicillin–streptomycin solution (100×) and 10% FBS at 37°C under a humid atmosphere containing 5% CO2. After cell passage, cryopreservation, and resuscitation, the growth-inhibitory effects against the five cell lines were determined by MTT assay. The 33 TMPH compounds and the reference control drug cisplatin were dissolved in 0.1% DMSO solution. The cell lines were maintained in 96-well plates and subjected to each test compound (0–50 μM) at 37°C for 48 h. After treatment with 1 mg/ml MTT solution for 4 h, the formazan crystals were dissolved in each well. A microplate reader (Varioskan Flash 3001, Thermo Scientific) was used to determine the cell viability at 490 nm, and each experiment was repeated four times. The collected data were expressed as the mean ± SEM. The inhibitory concentration of the 34 compounds at 50% (IC50) was calculated via concentration–inhibition relationship regression by SPSS software.

[2] = system: human breast cancer MDA-MB-231; experiment: MTT antiproliferative assay, MDA-MB-231; details: for IC50: MTT, 48 h, 0–50 μM, read-out: Antiproliferative activity IC50 ± SEM, MDA-MB-231; for SI, selectivity index: SI = IC50 (L929)/IC50 (MDA-MB-231)
Protocol: as §1

mouse breast cancer 4T1 = experiment: MTT antiproliferative assay, 4T1; details: 48 h, 0–50 μM, read-out: Antiproliferative activity IC50 ± SEM, 4T1
Protocol: as §1

mouse fibroblast L929 = experiment: MTT antiproliferative assay, L929; details: 0–50 μM, read-out: Antiproliferative activity IC50 ± SEM, L929
Protocol: as §1

[3] = system: human umbilical vein endothelial HUVEC; experiment: MTT antiproliferative assay, HUVEC; details: 48 h, 0–50 μM, read-out: Antiproliferative activity IC50 ± SEM, HUVEC
Protocol: as §1

[4] = system: MCF-7, MDA-MB-231, 4T1, L929 and HUVEC cell lines; experiment: MTT antiproliferative assay, statements over all five tested cell lines; details: range over all five tested cell lines, read-out: IC50 values ranging over the tested cell lines
Protocol: as §1

| SMILES | IC50 ([1]; Homo sapiens, MCF7, 48 h) [µM] | IC50 ([2]; Homo sapiens, MDA-MB-231) [µM] | SI, selectivity index [2] | IC50 (mouse breast cancer 4T1; Mus musculus) [µM] | IC50 (mouse fibroblast L929; Mus musculus, L929, 48 h) [µM] | IC50 ([3]; Homo sapiens, HUVEC) [µM] | IC50 [4] [µM] | IC50 ([1]; 48 h) [µM] | IC50 [2] [µM] | IC50 (mouse breast cancer 4T1) [µM] | IC50 (mouse fibroblast L929; 48 h) [µM] | IC50 [3] [µM] |
| --- | --- | --- | --- | --- | --- | --- | --- | --- | --- | --- | --- | --- |
| Cc1nc(C)c(C(=O)NCCCCCCCCCCNC(=O)c2ccc3ncccc3c2)nc1C [10–6] | 6.49 ± 0.36 | 7.76 ± 0.14 | 1.15 | 12 ± 0.54 | 8.91 ± 0.12 | 10.2 ± 0.86 | 1.61 to 19.5 | – | – | – | – | – |
| Cc1nc(C)c(C(=O)NCCCCCCCCCCNC(=O)c2ccc3cc[nH]c3c2)nc1C [10–9] | 3.37 ± 0.19 | 6.01 ± 0.11 | 1.23 | 3.12 ± 0.14 | 7.37 ± 0.57 | 9.63 ± 0.53 | 1.61 to 19.5 | – | – | – | – | – |
| Cc1nc(C)c(C(=O)NCCCCCCCCCCCCNC(=O)c2ccc3ccccc3c2)nc1C [12–13] | 1.61 ± 0.08 | 5.01 ± 0.16 | 1.77 | 4.76 ± 0.45 | 8.89 ± 0.12 | 10.7 ± 1.06 | 1.61 to 19.5 | – | – | – | – | – |
| Cc1nc(C)c(C(=O)NCCCCCCCCCCCCNC(=O)c2cnc3ccccc3c2)nc1C [12–5] | 1.36 ± 0.06 | 2.39 ± 0.12 | 1.75 | 3.5 ± 0.06 | 4.18 ± 0.05 | 11.4 ± 0.44 | 1.61 to 19.5 | – | – | – | – | – |
| COc1cc(C=CC(=O)NCCCCCCCCCCCCNC(=O)c2nc(C)c(C)nc2C)cc(OC)c1OC [12–12] | 2.21 ± 0.15 | 1.64 ± 0.12 | 11.50 | 2.69 ± 0.04 | 18.9 ± 0.44 | 12.2 ± 0.2 | 1.61 to 19.5 | – | – | – | – | – |
| COc1ccc(C=CC(=O)NCCCCCCCCCCNC(=O)c2nc(C)c(C)nc2C)cc1OC [10–11] | 3.23 ± 0.03 | 12.9 ± 1.41 | >1.55 | > 20 | > 20 | > 20 | – | – | – | – | – | – |
| COc1ccc(C=CC(=O)NCCCCCCCCCCCCNC(=O)c2nc(C)c(C)nc2C)cc1OC [12–11] | 1.76 ± 0.02 | 2.42 ± 0.18 | >8.26 | 2.32 ± 0.14 | > 20 | > 20 | – | – | – | – | – | – |
| Cc1nc(C)c(C(=O)NCCCCCCCCNC(=O)c2cnc3ccccc3c2)nc1C [8–5] | 4.96 ± 0.25 | 3.44 ± 0.16 | 1.01 | 2.07 ± 0.04 | 3.49 ± 0.28 | > 20 | – | – | – | – | – | – |
| COc1ccc(C=CC(=O)NCCCCCCCCNC(=O)c2nc(C)c(C)nc2C)cc1OC [8–11] | > 20 | 5.05 ± 0.02 | >3.96 | 12 ± 0.46 | > 20 | 10.35 ± 0.03 | – | – | – | – | – | – |
| Cc1nc(C)c(C(=O)NCCCCCCCCNC(=O)c2cc3ccccc3[nH]2)nc1C [8–4] | 6.21 ± 0.14 | 5.77 ± 0.09 | 1.85 | > 20 | 10.7 ± 0.43 | > 20 | – | – | – | – | – | – |
| N.N.[Cl][Pt][Cl] [DDP, cisplatin, reference compound] | – | – | 2.64 | – | – | – | – | 6.25 ± 0.34 | 3.18 ± 0.06 | 5.71 ± 0.16 | 8.38 ± 0.23 | 7.46 ± 0.45 |
| Cc1nc(C)c(C)nc1C [TMP, Ligustrazine] | > 20 | > 20 | – | > 20 | > 20 | > 20 | – | – | – | – | – | – |
| Cc1nc(C)c(C(=O)NCCCCCCCCCCNC(=O)C=Cc2ccccc2)nc1C [10–1] | 2.61 ± 0.19 | 1.14 ± 0.08 | 3.82 | 2.86 ± 0.18 | 4.36 ± 0.37 | > 20 | – | – | – | – | – | – |
| Cc1nc(C)c(C(=O)NCCCCCCCCCCNC(=O)c2cc3ccccc3[nH]2)nc1C [10–4] | > 20 | 13 ± 0.27 | >1.54 | > 20 | > 20 | > 20 | – | – | – | – | – | – |
| Cc1nc(C)c(C(=O)NCCCCCCCCCCNC(=O)c2cnc3ccccc3c2)nc1C [10–5] | 8.72 ± 0.49 | 5.76 ± 0.13 | 0.90 | > 20 | 5.18 ± 0.27 | > 20 | – | – | – | – | – | – |
| Cc1nc(C)c(C(=O)NCCCCCCCCCCCCNC(=O)c2cc3ccccc3o2)nc1C [12–2] | 2.71 ± 0.07 | 3.38 ± 0.12 | 1.12 | 3.97 ± 0.01 | 3.78 ± 0.14 | 11 ± 0.68 | 1.61 to 19.5 | – | – | – | – | – |
